In patent publication US12172988B2, “Anticancer and antifungal splice modulators” (priority 2021, dated 2024):
Read-outs that look alike come from different tables or passages of the source.

Legend:
[1] = system: PLK-1; assay: qPCR splicing analysis, PLK-1 exon skipping / RNA expression; type: cell-based, human; details: for PLK-1 RNA expression: HCT116, 24 h, 100, 250, 500 nM
Method: (§1) HCT116 tumor cells were treated with each analogue at 20 times the G150 value (Table 12) for 4 hours and then cellular RNA was isolated and purified for qPCR. Primers were designed to evaluate intron retention or exon skipping, direct responses to splice modulator treatment. Genes evaluated included those involved in splicing regulation (SF3A1, SF3A3, SF3B1, SF3B2), apoptosis (MCL-1L), protein folding (DNAJB1), and cell cycle regulation (AURKA, PLK-1) relative to the unspliced control GAPDH. For alternative splicing regulator (SF2), primers were designed to evaluate gene expression, which changes in response splice modulator treatment for SF2 relative to the unspliced control GAPDH. (−) denotes untreated cells.
(§2) Next, we turned our efforts to explore the ability of these analogues to modulate splicing. […] We treated cells for 4 h so that we could evaluate early changes in splicing activity, and then cellular RNA was isolated and purified for analyses by qPCR (FIG. 14). Most importantly, none of the concentrations tested led to significant changes in cell viability, ensuring that changes in gene expression were not due to cell death.
(§3) For these studies, we evaluated the expression of genes involved in splicing regulation (SF3A1, SF3A3, SF3B1, SF3B2), apoptosis (MCL-1L), protein folding (DNAJB1), and cell cycle regulation (AURKA, PLK-1) relative to the unspliced control GAPDH. Primers were designed to evaluate intron retention or exon skipping, direct responses to splice modulator treatment. The master splicing regulator alternative splicing factor (SF2) was also evaluated, with the primers for this gene designed to evaluate overall gene expression, which changes in response to splice modulator treatment.
(§4) From this 4 h study (FIG. 14), a small set of analogs (1, 1b, 1g, 1d, 1e, 1i and 1j) were selected to evaluate if effects on splicing when presented for a longer 24 h period. […] Using identical procedures as that used for 4 h, HCT116 cells were treated with three concentrations (100 nM, 250 nM and 500 nM) of each analog for 24 h. Multiple concentrations were used as a means to check further validate the use of the GI50 concentration in our prior study (FIG. 14). As before, none of the concentrations tested led to significant changes in cell viability over the 24-hour time window, ensuring that changes in gene expression were not due to cell death.
Cells were treated with 1 or 1a-1j in media (McCoy's 5a (Life Technologies) supplemented with 10% FBS, 2 mM L-glutamine, and 100 U mL^−1 of penicillin and 100 μg mL^−1 of streptomycin 0.5% DMSO) for 4 h or 24 h. Untreated cells were considered were used as negative control. Total RNA was isolated using mirVana miRNA isolation kit (Life Technologies). A 1 μg sample of RNA was subjected to DNAseI from a TURBO DNA free kit (Life Technologies). […] The amount of unspliced RNA for different genes was determined using Power SYBR Green PCR master mix (Applied Biosystems) by qPCR using specific primers for each gene. qPCR using 2.5 μM of each primer was performed on 5 ng of the obtained cDNA. qPCR conditions were as follows: 95° C. for 10 min for one cycle, then 95° C. for 10 min for one cycle, then 95° C. for 30 s, 55° C. for 60 s, 72° C. for 60 s, for 40 cycles using the MXPro. Quantification cycle (Cq) values were identified for each sample, and then RNA levels were calculated using 2-ΔΔCT method. […] Namely, all genes explored in this study were evaluated from the same cell cultures. […]

[2] = compared with C16-C17 isomers / pladienolides, cited from earlier work
[3] = system: SF2; assay: qPCR gene expression of alternative splicing factor SF2; type: cell-based, human; details: for SF2 RNA expression: HCT116, 24 h, 100, 250, 500 nM, compared to 1
Method: as §1
as §1, with “analogues” for “each analogue”, “100 nM (light grey), 250 nM (grey), or 500 nM (black)” for “20 times the G150 value (Table 12)”, “24 h” for “4 hours”, “(MCL-1L), and” for “(MCL-1L),”, “(DNAJB1),” for “(DNAJB1), and cell cycle regulation (AURKA, PLK-1)”, “(—)” for “(−)”
as §2, §3
From this 4 h study (FIG. 14), a small set of analogs (1, 1b, 1g, 1d, 1e, 1i and 1j) were selected to evaluate if effects on splicing when presented for a longer 24 h period. […] Using identical procedures as that used for 4 h, HCT116 cells were treated with three concentrations (100 nM, 250 nM and 500 nM) of each analog for 24 h. […]

[4] = in vivo; cited from earlier work
[5] = system: DNAJB1; assay: qPCR splicing analysis, DNAJB1 intron retention; type: cell-based, human; details: for DNAJB1 intron retention: HCT116, 24 h, 100, 250, 500 nM, compared to 1
Method: as §1
as §1, with “analogues” for “each analogue”, “100 nM (light grey), 250 nM (grey), or 500 nM (black)” for “20 times the G150 value (Table 12)”, “24 h” for “4 hours”, “(MCL-1L), and” for “(MCL-1L),”, “(DNAJB1),” for “(DNAJB1), and cell cycle regulation (AURKA, PLK-1)”, “(—)” for “(−)”
as §2, §3, §4
Cells were treated with 1 or 1a-1j in media (McCoy's 5a (Life Technologies) supplemented with 10% FBS, 2 mM L-glutamine, and 100 U mL^−1 of penicillin and 100 μg mL^−1 of streptomycin 0.5% DMSO) for 4 h or 24 h. Untreated cells were considered were used as negative control. Total RNA was isolated using mirVana miRNA isolation kit (Life Technologies). […]

[6] = system: AURKA; assay: qPCR splicing analysis, AURKA exon skipping / expression; type: cell-based, human; details: HCT116, 24 h, 100, 250, 500 nM
Method: as §1
Next, we turned our efforts to explore the ability of these analogues to modulate splicing. […] We treated cells for 4 h so that we could evaluate early changes in splicing activity, and then cellular RNA was isolated and purified for analyses by qPCR (FIG. 14). […]
as §3, with “Primers were designed to evaluate intron retention or exon skipping, direct responses to splice modulator treatment.” left out, “treatment. […]” for “treatment.”
Cells were treated with 1 or 1a-1j in media (McCoy's 5a (Life Technologies) supplemented with 10% FBS, 2 mM L-glutamine, and 100 U mL^−1 of penicillin and 100 μg mL^−1 of streptomycin 0.5% DMSO) for 4 h or 24 h. […] The amount of unspliced RNA for different genes was determined using Power SYBR Green PCR master mix (Applied Biosystems) by qPCR using specific primers for each gene. qPCR using 2.5 μM of each primer was performed on 5 ng of the obtained cDNA. qPCR conditions were as follows: 95° C. for 10 min for one cycle, then 95° C. for 10 min for one cycle, then 95° C. for 30 s, 55° C. for 60 s, 72° C. for 60 s, for 40 cycles using the MXPro. […]

[7] = system: SF3A3; assay: qPCR splicing analysis, SF3A3 intron retention; type: cell-based, human; details: HCT116, 24 h, 100, 250, 500 nM
Method: as §1
HCT116 tumor cells were treated with analogues at 100 nM (light grey), 250 nM (grey), or 500 nM (black) for 24 h and then cellular RNA was isolated and purified for qPCR. […] Genes evaluated included those involved in splicing regulation (SF3A1, SF3A3, SF3B1, SF3B2), apoptosis (MCL-1L), and protein folding (DNAJB1), relative to the unspliced control GAPDH. […]
For these studies, we evaluated the expression of genes involved in splicing regulation (SF3A1, SF3A3, SF3B1, SF3B2), apoptosis (MCL-1L), protein folding (DNAJB1), and cell cycle regulation (AURKA, PLK-1) relative to the unspliced control GAPDH. […]

[8] = HCT116, 4 h, 20 times GI50, qPCR

CC[C@H](OC)[C@@H](C)[C@H]1O[C@@H]1[C@@H](O)[C@H](C)/C=C/C=C(\C)[C@H]1OC(=O)C[C@H](O)CC[C@@](C)(O)[C@@H](OC(C)=O)/C=C/[C@@H]1C [Analog 1d, 17S-FD-895]
PLK-1 RNA expression [1]: decreased effect at reducing | stability (words) [2]: increased stability | stability (words) ([2]; listed as 17S-FD-895): metabolically-improved | SF2 RNA expression [3]: decreased effect at reducing | MTD [4]: 4 mg/kg | DNAJB1 intron retention [5]: decreased level of intron retention

CC[C@H](OC)[C@@H](C)[C@H]1O[C@@H]1[C@@H](O)[C@H](C)/C=C/C=C(\C)[C@H]1OC(=O)C[C@@H](O)CC[C@@](C)(O)[C@@H](OC(C)=O)/C=C/[C@@H]1C [Analog 1g, 3S,17S-FD-895]
effect on exon 3 inclusion in PLK-1 [1, 8]: most potent effect | PLK-1 RNA expression [1]: reduced PLK-1 RNA expression | AURKA expression [6]: altered the expression of AURKA comparable to 1 | down regulating the expression of SF2 RNA [3, 8]: highest efficacy | SF2 RNA expression [3]: reduced ability to inhibit SF2 RNA expression | DNAJB1 intron 2 retention (level of intron retention) ([5]; HCT116, 4 h, 20 times GI50, qPCR relative to GAPDH): highest level of intron retention | DNAJB1 intron retention [5]: loss in intron retention | SF3A3 intron retention [7]: concentration dependent increase intron retention

CC[C@H](OC)[C@@H](C)[C@@H]1O[C@H]1[C@@H](O)[C@H](C)/C=C/C=C(\C)[C@H]1OC(=O)C[C@H](O)CC[C@@](C)(O)[C@@H](OC(C)=O)/C=C/[C@@H]1C [Analog 1i, 17S,18S,19S-FD-895]
PLK-1 RNA expression [1]: increased the RNA expression relative to negative controls

CC[C@@H](OC)[C@H](C)[C@H]1O[C@@H]1[C@@H](O)[C@H](C)/C=C/C=C(\C)[C@H]1OC(=O)C[C@H](O)CC[C@@](C)(O)[C@@H](OC(C)=O)/C=C/[C@@H]1C [Analog 1j, 17S,20S,21R-FD-895]
AURKA expression [6]: reducing the expression of AURKA at 500 nM
